“Also recorded” adds a separate entry of the source.

Broadly, the EC50 is the concentration at which the effect is half-maximal. Lower therefore signals an effect from little substance.

The target in data set [1] is ShhN (N-terminal fragment of Sonic Hedgehog protein) (Homo sapiens, UniProt Q15465). Description: Surface plasmon resonance (SPR) binding to immobilized purified ShhN. Particulars: for ShhN binding in SPR: 0.78-25 μM compound. As for the experimental part:
Biacore™ T100 (GE Healthcare, Uppsala, Sweden) was used to perform the experiments reported herein. Sensor surface preparation and interaction analyses experiments were performed at 25° C. Prior to surface preparation, lyophilized ShhN protein (R&D Systems) was dissolved in either water or PBS buffer, at pH 7.4 and protein purity determined by Nu-Page 4-12% Bis-Tris gel in MOPS buffer with a silver stain sensor preparation.
ShhN was immobilized onto series S sensor chip CM4 via a standard N-ethyl-N′-(dimethylaminopropyl)carbodiimide/N-hydroxysuccinimide (EDC/NHS) amine coupling procedures (Biacore Sensor Surface Handbook, 2003, version AA, Biacore, Uppsala, Sweden). Shh was diluted to 10 μg/mL in 10 mM sodium acetate pH 5.5 for these procedures and resultant immobilization levels were 1000-1200 R.U.s. Control surfaces were prepared similarly without protein derivatization and utilized as a reference surfaces for compound binding experiments.
For compound interaction analyses, 0.01 M Hepes, pH 7.4, 0.15 M NaCl, 0.05% Surfactant P20 and 5% DMSO was used for both running and sample buffers. Compound samples were prepared by serial dilution in the range 0.78 uM-25 uM and flowed over control and derivatized surfaces for two minutes at a flow-rate of 80 μL/min. Zero concentration blank buffer cycles were included as negative control samples. Solvent correction procedures were included to compensate for any DMSO related bulk refractive index variations and performed as described previously (Karlsson, R. et al. Anal. Biochem. 278, 1-13, 2000). Non-specific binding effects to sensor surface CM4 were absent for all analyses reported.
Data analysis was carried out using Biacore T100 evaluation software v1.1.1. Data were prepared by subtraction of reference surface data and blank buffer sample data, a procedure commonly referred to as ‘double referencing’ (Myszka, D. G. J. Mol. Recognit. 12, 1-6, 1999). Solvent correction was then applied as described previously.
In general terms: SPR reads the build-up and loss of mass on a sensor chip optically.

Another data set addresses T1, ShhN protein (rmShh) (Mus musculus, UniProt Q62226).
T1 construct: Recombinant mouse amino-terminal peptide 461-CF (rmShh); purchased R & D Systems 461-CF
As to the kind of experiment: Small molecule microarray (SMM) screen for ShhN binding. Particulars: screened in triplicate. On the procedure:
A screen of the ShhN protein was performed using small molecule microarrays (SMMs) containing a collection of approximately 10,000 diversity-oriented synthesis (DOS) compounds and natural products that has been reported by Koehler and co-workers, in which the entire library was arrayed on a single microscope slide (Bradner, J. E. et al. Chem. Biol. 13, 493-504, 2006). Three SMM slides were used to screen for small molecules that bind the ShhN protein, while two slides were designated as protein-free negative controls. Binding was detected by the use of a biotinylated anti-ShhN antibody, followed by incubation with streptavidin alexa 647. The treated slides were then scanned with a microarray plate reader. The duplicate negative controls eliminated many false positives, while screening in triplicate increased the accuracy of the results. Microarray image analysis was performed with GenePix Pro software (Molecular Devices, Sunnyvale Calif.). […] The software was then used to select all remaining possible positives in the ShhN-treated slides that exceeded our criteria for fluorescence intensity threshold. […]
The three experimental SMM slides were incubated on parafilm (Alcon, Menasha Wis.) with 300 μL of a 25 μg/mL rmShh solution in a 0.1% BSA in PBS buffer. […] Slides were dried by centrifugation and scanned with a GenePix 4000B microarray plate reader (Axon Instruments, Sunnyvale Calif.). […]

Data set [2] has as its system Ptc1-/- MEF cell line (Gli1-beta-galactosidase reporter). Description: Ptc1-/- cell line beta-galactosidase reporter assay. The class given is cell-based, mouse. On the procedure: To explore further the potential mechanism of Shh pathway inhibition involving direct perturbation of the ShhN protein complex, the same compounds were tested in a Ptc1^−/− cell line derived from mouse embryos lacking Ptc1 function. The cell line had both Ptc1 alleles replaced with a β-galoctosidase (β-gal) reporter (Surajit et al., supra). Because Ptc1 inhibits Hh pathway activation by repressing Smo function, removing both Ptc1 alleles results in constitutive pathway activation.
The ptc−/− cell line was derived from an embryonic mouse fibroblast cell line transfected with a β-galactosidase construct. The cell line was cultured in DMEM with 10% FBS until confluent, and then cells were plated 1:5 into white 96-well optical-bottom plates and allowed to reach a confluent state over 3-4 days while incubating at 37° C. After reaching confluency, the medium was removed from each well, and the cells were treated with test compound (for example, robotnikinin or cyclopamine) (EMD Biosciences, San Diego, Calif.) in DMEM with 0.5% FBS. After a 30 hour incubation, the wells were treated with Beta-Glo assay reagent (Promega, Madison, Wis.) and allowed to be gently agitated for 30 minutes at room temperature. After the agitation was complete, plates were read with an Envision Multi-Label Reader 2102 luminometer.
In general terms: Reporter assays use an easily measured gene product as a stand-in for the process of interest.

The subject of data set [3] is Gli1 (Gli-dependent firefly luciferase reporter, ShhL2 cell line). Description: ShhL2 (Shh-LIGHT2) Gli-luciferase reporter assay. It counts as cell-based. As for the experimental part:
We examined the activity of the new series of AML compounds in Shh-LIGHT2 cells (ATCC, Manassas Va.) (Tapaile, J., et al., 2000 supra), which is an NIH3T3 cell line with a Gli-dependent firefly luciferase reporter.
Therefore, compounds that repress Gli1 activity would be putative inhibitors of Shh signaling in the cell line in which the experiments were carried out. We examined the activity of the new series of AML compounds in the Shh Light II cell line, or ShhL2 line (ATCC, Manassas Va.) (Tapaile, J., et al., 2000 supra), which is an NIH3T3 line transformed with a Gli-luciferase construct along with zeocin and G418 resistance vectors to select for the transformed strains during normal culturing.
(§1) ShhL2 cells are NIHT3 cells that have been transfected with a Gli-luciferase construct, as previously reported (Tapaile, et al. 2000; Surajit, et al., supra). ShhL2 cells (ATCC, Manassas, Va.) were cultured with DMEM (GIBCO, Carlsbad, Calif.), 10% Calf Bovine Serum (ATCC Manassas, Va.), 0.4 mg/ml G-418 (ATCC, Manassas, Va.), 0.15 mg/ml Zeocin (Invitrogen, Carlsbad Calif., Cat. No. R25001) at 37° C. When confluent, the cells were plated 1:5 into white 96-well optical-bottom plates and allowed to reach confluence over approximately 5-7 days. When confluent, the medium was removed and the ShhL2 cells were treated with test compound (for example, robotnikinin or cyclopamine) (EMD Biosciences, San Diego, Calif.) in DMEM with 0.5% Calf Bovine Serum. After incubation for 30 hours, each well was treated with 100 μL of Bright-Glo luciferase assay reagent (Promega, Madison, Wis.) and the plate was read with an Envision Multi-Label Reader 2102 luminometer (Perkin Elmer, Waltham, Mass.). Wells treated in identical fashion were then treated with Cell Titer-Glo reagent (Promega, Madison, Wis.) and read with an Envision Multi-Label Reader 2102 luminometer after being allowed to stand 10 minutes at room temperature.

For another data set, the system named is Gli1 mRNA. As to the kind of experiment: Gli1 mRNA by qPCR in primary human keratinocytes. It counts as cell-based. An excerpt:
(§2) Culturing of primary human keratinocytes was previously described (Nguyen, B. C., et al., Genes & Dev. 20:1028-1042 (2006)). The full thickness skin model, EpiDermFT System (MatTek, Ashland), consists of normal, human-derived epidermal keratinocytes and normal, human-derived dermal fibroblasts which have been cultured to form a multilayered, highly differentiated model of the human dermis and epidermis.
(§3) Gene expression was compared by quantifying mRNA levels by real time RT-PCR. For this, total RNA preparations (1 μg) were used in a reverse transcriptase reaction with a mix of oligonucleotide dT and random hexamer primers, followed by real time PCR with gene-specific primers (Gli1: Qiagen Quantitect PrimerAssay QT00060501; Gli2: Qiagen Quantitect PrimerAssay QT00018648), using an Icycler IQTM real time detection system (Bio-Rad) according to the manufacturer's recommendation, with SYBR Green (Bio-Rad) for detection. Each sample was tested in triplicate, and the results were normalized by real time PCR of the same cDNA with 36B4 primers (36B4 forward primer: 5′-GCAATGTTGCCAGTGTCTGT 3; reverse primer, 5′-GCCTTGACCTTTTCAGCAAG-3′).
(In general: Quantitative PCR measures a nucleic acid by following its amplification.)

Data set [4] has as its system Gli1 and Gli2 transcripts. Description: Synthetic skin (primary human keratinocytes on collagen matrix): qPCR and histology. The class given is cell-based.
Source text: as §2, §3

The next data set relates to ShhL2 cells. Description: Cell Titer Glo cell viability assay run in parallel in ShhL2 cells. The class given is cell-based. On the procedure: as §1
A further data set relates to Gli2 mRNA. Description: Gli2 mRNA by qPCR in primary human keratinocytes. It counts as cell-based.
Source text: as §2, §3

A further data set concerns hair regrowth. Description: Topical application after depilation, hair regrowth in mice. The class given is in vivo, mouse. On the procedure: Eight-week-old C57BL/6J female mice were purchased from Charles River (Boston, Mass.). Mice were housed in community cages at the animal facilities of the Massachusetts General Hospital. All mice were fed water and murine chow ad libitum and kept under 12 h light/dark cycles. Active hair growth (anagen) was induced in the back skin during the telogen phase of the hair cycle by application of the wax-rosin mixture with subsequent depilation, as described before (Paus, R., Stenn, K. S., Link, R. E. (1990). Br. J. Dermatol. 122, 777-784).
Robotnokinin was dissolved in 10% DMSO and applied every day topically on the depilated skin surface. Mice were kept in individual cages to avoid scratching. Telogen-anagen transformation was studied at the following time points: telogen (unmanipulated skin), anagen (day 8 postdepilation) and very late anagen (day 12 postdepilation) (see FIG. 8a, top panels). In all experiments, the neck region of back skin was harvested parallel to the vertebral line for either heat-mediated epidermal separation and subsequent real time RT-PCR analysis for Gli1 and Gli2 expression levels or embedded for histology on frozen sections (see FIG. 8a, bottom panel, and FIG. 8b).

ShhN (N-terminal fragment of Sonic Hedgehog protein), sequence (Q15465 24-197): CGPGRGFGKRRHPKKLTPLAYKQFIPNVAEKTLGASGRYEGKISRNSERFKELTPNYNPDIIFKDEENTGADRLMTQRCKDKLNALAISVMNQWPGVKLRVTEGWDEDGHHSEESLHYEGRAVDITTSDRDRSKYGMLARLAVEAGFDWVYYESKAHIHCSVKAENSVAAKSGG
T1 sequence (Q62226 25-198 limits assumed): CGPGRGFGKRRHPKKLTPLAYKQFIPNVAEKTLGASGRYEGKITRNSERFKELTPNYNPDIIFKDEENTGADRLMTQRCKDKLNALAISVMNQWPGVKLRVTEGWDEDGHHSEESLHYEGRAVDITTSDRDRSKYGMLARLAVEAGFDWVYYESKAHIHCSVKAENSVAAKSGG

Turning to `CC1CNC(=O)C(CC(=O)N(CCO)Cc2ccccc2)CC=CCCC(N)C(=O)O1` (centres unmarked) [AML1], the “ShhN binding in SPR” value in data set [1] was “binding to ShhN in a concentration-dependant fashion”. Moreover, the SMM screen result on ShhN protein (rmShh) is listed as “assay positives”.
For `CC1COC(=O)C(N)CCC=CCC(CC(=O)N(CCO)Cc2ccccc2)C(=O)N1` (centres unmarked) [AML2] the same measures were “binding to ShhN in a concentration-dependant fashion” and “assay positives”.
Turning to `CC1=C2C[C@H]3[C@@H](CC=C4C[C@@H](O)CC[C@@]43C)[C@@H]2CC[C@]12O[C@@H]1C[C@H](C)CN[C@H]1[C@H]2C` [cyclopamine, reference compound], the “pathway inhibition in Ptc1-/- cell line” value in data set [2] (6.6 μM cyclopamine) is given as “significant pathway inhibition”.
Take `O=C(C[C@@H]1C/C=C/CCC(=O)O[C@H](c2ccccc2)CNC1=O)NCc1ccc(Cl)cc1` [robotnikinin, N-(4-chlorobenzyl)-2-((2R,6S,E)-5,12-dioxo-2-phenyl-1-oxa-4-azacyclododec-8-en-6-yl)acetamide]: the EC50 in data set [3] (Shh Light2, ShhL2 cell line, Bright Glo luciferase, approximations based on concentration curves) was around 4 µM. Besides, the “concentration giving inhibition comparable to 6.25 μM cyclopamine” value in data set [3] (Shh-LIGHT2 cells) is “above 30 μM”. Besides, the “inhibition with co-administered purmorphamine” value in data set [3] (Shh-LIGHT2 cells, ShhN-conditioned medium plus 3.6 μM purmorphamine) is “virtually all of the inhibitory effect was eliminated; also recorded: negligible inhibition”. The “Gli1 ECmax” value in data set [3] (ShhL2 cell line, concentration of maximal effect) turned out to be 62.5 µM. For the same molecule, the “Shh pathway inhibition / Gli1 suppression” value in data set [3] (ShhN-conditioned medium, 30 h incubation) was “concentration-dependent inhibition of ShhN-induced pathway activation; also recorded: strong concentration dependent Gli1 suppression”. Further, in [3] (may be taken relative to mock treatment (comparable to 6 μM cyclopamine), cytotoxic compounds: at highest effective non-cytotoxic concentration), the “% CI (% cyclopamine inhibition), footnote d” value was determined as 91%. The “effect on Gli1/Gli2 mRNA with co-administered Smo agonists purmorphamine and SAG” value in the data set on Gli1 mRNA (primary human keratinocytes) is recorded as “this effect is blocked”. In addition, in the data set with Gli1 mRNA (qPCR, normalized for cell titer), the “endogenous Gli1 mRNA level” value is reported as “lowers levels”. Moreover, the “pathway inhibition in Ptc1-/- cell line” value in data set [2] (30 h, any concentration tested, normalized for cell titer) was “no pathway inhibition was observed; also recorded: pathway inhibition was not observed”. In addition, the “ShhN binding in SPR” value in data set [1] is “ShhN-binding capacity at concentrations between 1.56 μM and 25 μM; also recorded: concentration-dependent binding to purified ShhN”. For the same molecule, the “dissociation time in SPR” value in [1] (compared with AML1 and AML2) was “longer dissociation time than AML1 and AML2”. For the same molecule, the “histology of treated synthetic skin” value in data set [4] is “histologically normal”. Besides, the “Gli1 and Gli2 mRNA levels in synthetic skin” value in [4] (qPCR after incubation) was “reduced levels of Gli1 and Gli2 mRNA”. Also, the cytotoxicity result with ShhL2 cells (Cell Titer Glo, ShhL2 cells, concentration above which cytotoxic) is “none”; with ShhL2 cells (cell titer viability assay), “No significant cytotoxicity was observed”. Further, the “endogenous Gli2 mRNA level” value in the data set on Gli2 mRNA is “lowers levels; also recorded: lower levels of endogenous Gli2 mRNA”. Besides, in the data set on hair regrowth (12 days post depilation), the “hair follicles in skin cross sections” value is listed as “lack of hair follicles”. Further, the hair regrowth entry in the data set on hair regrowth (topical, daily, 8 and 12 days post depilation, C57BL/6J mice) was “blocked hair regrowth”.

Source of the values: US8530456B2, “Sonic hedgehog modulators” (President and Fellows of Harvard College, priority 2008, dated 2013).
